Reference: patent US12522587B2, “Cancer treatments targeting cancer stem cells” (Remedy Plan, Inc., priority 2018, dated 2026)
pIC50: −log10 of the molar value. Like-named read-outs stand apart in the source and are kept apart here.

Test system: AGS cells
Assay: Cell viability in AGS cells (CellTiter Glo2, 8-point dose response, 4 days)
Type: cell-based, human
Method: AGS cells were treated with DMSO (no drug control) or each compound in Table 5 in an 8-point dose response for 4 days. Cell viability was measured using CellTiter Glo2. The IC50 of each compound was determined using CDD Vault.

Row | Compound | pIC50 (Homo sapiens, AGS, 96 h) | pIC50
1 | CCC(=O)N1CCc2cc(N3CC(C(=O)NCc4cccnc4)C3)ccc21 [Compound I-209, 1-(1-propionylindolin-5-yl)-N-(pyridin-3-ylmethyl)azetidine-3-carboxamide] | < 4.52 | –
2 | CC(C)(O)C(=O)N1CCc2cc(-c3ccc(C(=O)NCc4cccnc4)cc3)ccc21 [Compound I-68, 4-(1-(2-hydroxy-2-methylpropanoyl)indolin-5-yl)-N-(pyridin-3-ylmethyl)benzamide] | 4.53 | –
3 | CCC(=O)N1CCc2cc(-c3ccc(C(=O)NCc4cccnc4)cc3C)ccc21 [Compound I-91, 3-methyl-4-(1-propionylindolin-5-yl)-N-(pyridin-3-ylmethyl)benzamide] | 5.69 | 5.59
4 | CCC(=O)N1CCc2cc(-c3ccc(C(=O)NCC4CCCC4)cc3)ccc21 [Compound I-207] | < 4.00 | –
5 | CCC(=O)N1CCc2cc(-c3ccc(C(=O)NCc4cccc(Cl)c4)cc3)ccc21 [Compound I-168] | < 4.52 | –
6 | CCC(=O)N1CCc2cc(-c3ccc(C(=O)NCc4ccnnc4)cc3)ccc21 [Compound I-52, 4-(1-propionylindolin-5-yl)-N-(pyridazin-4-ylmethyl)benzamide] | < 5.00 | < 5.10
7 | CCC(=O)N1CCc2cc(-c3ccc(C(=O)NCC4CCOCC4)cc3)ccc21 [Compound I-191, 4-(1-propionylindolin-5-yl)-N-((tetrahydro-2H-pyran-4-yl)methyl)benzamide] | < 4.52 | –
8 | CCC(=O)N1CCc2cc(-c3ccc(C(=O)NC(C)c4ccccc4)cc3)ccc21 (stereo not shown) [Compound I-160] | < 4.52 | –
9 | CCC(=O)N1CCc2cc(-c3ccc(C(=O)NCc4ccncc4)cc3)ccc21 [Compound I-49, 4-(1-propionylindolin-5-yl)-N-(pyridin-4-ylmethyl)benzamide] | < 4.52 | –
10 | COCCN1CCc2cc(-c3ccc(C(=O)NCc4cccnc4)cc3)ccc21 [Compound I-53, 4-(1-(2-methoxyethyl)indolin-5-yl)-N-(pyridin-3-ylmethyl)benzamide] | 5.45 | –
11 | CCC(=O)N(C)c1ccc(-c2ccc(C(=O)NCc3ccc(C)nc3C)cc2)cc1 [Compound I-221] | 6.22 | –
12 | CCC(=O)N1CCc2cc(-c3ccc(C(=O)NCc4cccnc4)cc3F)ccc21 [Compound I-97, 3-fluoro-4-(1-propionylindolin-5-yl)-N-(pyridin-3-ylmethyl) benzamide] | 5.50 | –
13 | CCC(=O)N1CCc2cc(-c3ccc(C(=O)NCc4ccc(C)cc4)cc3)ccc21 [Compound I-157] | < 4.52 | –
14 | CCC(=O)N1CCc2cc(-c3ccc(C(=O)NCC4CCNCC4)cc3)ccc21 [Compound I-70, N-(piperidin-4-ylmethyl)-4-(1-propionylindolin-5-yl)benzamide] | < 4.52 | –
15 | CCC(=O)N1CCc2cc(-c3ccc(C(=O)NCc4ccccn4)cc3)ccc21 [Compound I-185, 4-(1-propionylindolin-5-yl)-N-(pyridin-2-ylmethyl)benzamide] | 4.81 | 4.68
16 | CCC(=O)N1CCc2cc(-c3ccc(C(=O)NCc4ccccc4)cc3)ccc21 [Compound I-152] | < 4.52 | –
17 | CCC(=O)N1CCc2cc(-c3ccc(C(=O)NCc4cccnc4)c(OC)c3)ccc21 [Compound I-96, 2-methoxy-4-(1-propionylindolin-5-yl)-N-(pyridin-3-ylmethyl)benzamide] | < 4.52 | –
18 | CCC(=O)N1CCc2cc(-c3ccc(C(=O)NC(C)c4cccnc4)cc3)ccc21 (stereo not shown) [Compound I-57, 4-(1-propionylindolin-5-yl)-N-(1-(pyridin-3-yl)ethyl)benzamide] | < 4.55 | –
19 | CC(=O)N1CCc2cc(-c3ccc(C(=O)NCc4ccccn4)cc3)ccc21 [Compound I-175] | 5.29 | –
20 | CCC(=O)N1CCc2cc(-c3ccc(C(=O)NCc4cn[nH]c4)cc3)ccc21 [Compound I-72, N-((1H-pyrazol-4-yl)methyl)-4-(1-propionylindolin-5-yl)benzamide] | < 4.52 | –
21 | CCC(=O)N(C)c1ccc(-c2ccc(C(=O)NCc3cscn3)cc2)cc1 [Compound I-236] | < 4.52 | –
22 | CCC(=O)N(C)c1ccc(-c2ccc(C(=O)NCc3cncs3)cc2)cc1 [Compound I-235] | < 4.52 | –
23 | CCC(=O)N1CCc2c1ccc(-c1ccc(C(=O)NCc3cccnc3)cc1)c2Cl [Compound I-214] | 6.02 | –
24 | CCC(=O)N1CCc2cc(-c3cnc(C(=O)NCc4cccnc4)nc3)ccc21 [Compound I-65, 5-(1-propionylindolin-5-yl)-N-(pyridin-3-ylmethyl) pyrimidine-2-carboxamide] | 5.14 | –
25 | CCC(=O)N1CCc2cc(-c3ccc(C(=O)NCc4cnco4)cc3)ccc21 [Compound I-73, N-(oxazol-5-ylmethyl)-4-(1-propionylindolin-5-yl)benzamide] | < 4.52 | –
26 | CCC(=O)N1CCc2cc(-c3ccc(C(=O)NCc4cccnc4C)cc3)ccc21 [Compound I-61, N-((2-methylpyridin-3-yl)methyl)-4-(1-propionylindolin-5-yl)benzamide] | < 4.52 | –
27 | CCC(=O)N1CCc2cc(-c3cccc(C(=O)NCc4cccnc4)c3)ccc21 [Compound I-50, 3-(1-propionylindolin-5-yl)-N-(pyridin-3-ylmethyl)benzamide] | < 4.52 | –

Second part, the compound after the results:

Row | pIC50 (Homo sapiens, AGS, 96 h) | pIC50 | Compound
28 | < 4.74 | – | CN(C(=O)CC#N)c1ccc(-c2ccc(C(=O)NCc3cccnc3)cc2)cc1 [Compound I-249]
29 | 5.74 | – | CCC(=O)N(C)c1ccc(-c2ccc(C(=O)NCc3cccnc3)cc2)cc1C [Compound I-215, 3′-methyl-4′-(N-methylpropionamido)-N-(pyridin-3-ylmethyl)-[1,1′-biphenyl]-4-carboxamide]
30 | 5.73 | – | CCC(=O)N(C)c1ccc(-c2ccc(C(=O)NCc3cccnc3)cc2)c(C)c1 [Compound I-217]
31 | 5.78 | – | CCN(C)C(=O)c1ccc(-c2ccc(C(=O)NCc3cccnc3)cc2)cc1 [Compound I-251]
32 | < 4.69 | – | CN1CCc2cc(-c3ccc(C(=O)NCc4cccnc4)cc3)ccc21 [Compound I-75, 4-(1-methylindolin-5-yl)-N-(pyridin-3-ylmethyl)benzamide]
33 | < 4.76 | < 4.74 | CC(=O)N1CCCc2cc(-c3ccc(C(=O)NCc4cccnc4)cc3)ccc21 [Compound I-46, 4-(1-acetyl-1,2,3,4-tetrahydroquinolin-6-yl)-N-(pyridin-3-ylmethyl)benzamide]
34 | < 4.52 | – | CCC(=O)N(C)c1ccc(-c2ccc(C(=O)NCc3cncc(F)c3)cc2)cc1 [Compound I-234]
35 | 5.44 | – | CCC(=O)N(C)c1ccc(-c2ccc(C(=O)NCc3cccnc3)cc2)cc1OC [Compound I-248, 3′-methoxy-4′-(N-methylpropionamido)-N-(pyridin-3-ylmethyl)-[1,1′-biphenyl]-4-carboxamide]
36 | < 4.52 | – | CCC(=O)Nc1ccc(-c2ccc(C(=O)NCc3cccnc3)cc2)cc1 [Compound I-44, 4′-propionamido-N-(pyridin-3-ylmethyl)-[1,1′-biphenyl]-4-Carboxamide]
37 | < 4.52 | – | CCC(=O)N(C)c1ccc(-c2ccc(C(=O)NCc3cnccc3C)cc2)cc1 [Compound I-238]
38 | 5.01 | – | CCC(=O)N(C)c1ccc(-c2ccc(S(=O)(=O)NCc3cccnc3)cc2)cc1 [Compound I-226]
39 | 5.34 | – | CCCC(=O)N(C)c1ccc(-c2ccc(C(=O)NCc3cccnc3)cc2)cc1 [Compound I-230, 4′-(N-methylbutyramido)-N-(pyridin-3-ylmethyl)-[1,1′-biphenyl]-4-carboxamide]
